Experimental data taken from patent US20220160714A1, “METHODS FOR TREATING COLORECTAL CANCER” (ICAHN SCHOOL OF MEDICINE AT MOUNT SINAI, priority 2019, published 2022).
Counter-ions that a name gives are not always drawn.

Test system: patient's personalized Drosophila model 006.1
Experiment: Trametinib combination drug screen (Table 4B, experimental pupae numbers)
Assay type: in vivo
Experimental: After food was solidified, a mixture of experimental and control embryos (at a 1:2 ratio based on expected Mendelian ratios) were aliquoted into each drug/food tube (15 μl/tube). […] Embryos for drug screening were generated from the following cross in cages: w/Y; UAS-006.1; UAS ago^RNAi UAS-apc^RNAi/Stub-gal80-T Xw UAS-dicer2; +; byn-gal4 UAS-GFP tub-gal80^ts/TM6, Hu, Tb. Embryos were obtained from each cage for 4-5 consecutive days by providing daily a fresh apple juice plate with yeast paste. Egg lays were performed at 22° C. to minimize transgene expression during embryogenesis to prevent embryonic defects or lethality that could not potentially be rescued by drug feeding. After embryos were aliquoted, drug tubes were transferred to 25° C. to induce transgene expression. After 2 weeks, the number of surviving experimental pupae (EP) were counted in each tube.
DMSO and Trametinib alone served as controls. […] Statistical analysis was performed as described above.

[1] = drug screened in combination with trametinib
[2] = drug screened in combination with trametinib, mean of 8 replicates

SMILES	EP (raw experimental pupae numbers), replicate 1 [1]	EP (raw experimental pupae numbers), replicate 2 [1]	EP (raw experimental pupae numbers), replicate 3 [1]	EP (raw experimental pupae numbers), replicate 4 [1]	EP (raw experimental pupae numbers), replicate 5 [1]	EP (raw experimental pupae numbers), replicate 6 [1]	EP (raw experimental pupae numbers), replicate 7 [1]	EP (raw experimental pupae numbers), replicate 8 [1]	EP mean [2]	EP mean (in vivo)
CC1Cc2ccccc2N1NC(=O)c1ccc(Cl)c(S(N)(=O)=O)c1 (centres unmarked) [indapamide]	0	0	1	0	2	2	0	4	1.125	
COc1ccc2c(c1)c(CC(=O)O)c(C)n2C(=O)c1ccc(Cl)cc1 [indomethacin]	0	0	0	0	1	0	0	0	0.125	
COc1cc2c(cc1OC)CC(=O)N(CCCN(C)C[C@H]1Cc3cc(OC)c(OC)cc31)CC2 [ivabradine HCl]	0	0	0	0	2	1	0	0	0.375	
CC(C)(C)c1cc(C(C)(C)C)c(NC(=O)c2c[nH]c3ccccc3c2=O)cc1O [ivacaftor]	0	0	7	0	3	3	1	2	2	
CC(C)C[C@H](NC(=O)CNC(=O)c1cc(Cl)ccc1Cl)B(O)O [ixazomib]	1	1	1	0	1	2	0	0	0.75	
O=C(O)CSc1nnc(Br)n1-c1ccc(C2CC2)c2ccccc12 [lesinurad sodium]	0	0	1	0	1	2	1	0	0.625	
Cc1ccc(NC(=O)C2(c3ccc4c(c3)OC(F)(F)O4)CC2)nc1-c1cccc(C(=O)O)c1 [lumacaftor]	0	4	4	1	2	1	1	4	2.125	
CC(=O)O[C@]1(C(C)=O)CC[C@H]2[C@@H]3C=C(C)C4=CC(=O)CC[C@]4(C)[C@H]3CC[C@@]21C [megestrol acetate]	0	1	1	0	1	2	1	2		1
Cc1cnc(NC(=O)C2=C(O)c3ccccc3S(=O)(=O)N2C)s1 [meloxicam]	0	0	0	3	1	1	0	1		
CN(C)C(=N)N=C(N)N [metformin HCl]	0	0	0	1	1	0	2	2		0.75
CN1Cc2c(N)cccc2C(c2ccccc2)C1 (centres unmarked) [nomifensine maleate]	0	0	0	0	1	4	0	1	0.75	
C=CC(=O)Nc1cc(Nc2nccc(-c3cn(C)c4ccccc34)n2)c(OC)cc1N(C)CCN(C)C [osimertinib]	0	0	0	0	0	0	3	1	0.5	
